Measurements taken from PMC7736581, “Activation of the IRE1 RNase through remodeling of the kinase front pocket by ATP-competitive ligands” (Nature Communications, 2020).

Tests used:
Assay in all cases: biochemical
Parameters in all cases: Invitrogen kinase panel: Z'Lyte activity (ATP at Km) or LanthaScreen competitive ATP-site binding, percent inhibition
MARK1 = MARK1 (Homo sapiens, UniProt Q9P0L2)
PIM1 = PIM1 (Homo sapiens, UniProt P11309)
IRAK1 = IRAK1 (Homo sapiens, UniProt P51617)
ERN1 = ERN1 (Homo sapiens, UniProt O75460)
Chain of ERN1 (O75460 whole entry): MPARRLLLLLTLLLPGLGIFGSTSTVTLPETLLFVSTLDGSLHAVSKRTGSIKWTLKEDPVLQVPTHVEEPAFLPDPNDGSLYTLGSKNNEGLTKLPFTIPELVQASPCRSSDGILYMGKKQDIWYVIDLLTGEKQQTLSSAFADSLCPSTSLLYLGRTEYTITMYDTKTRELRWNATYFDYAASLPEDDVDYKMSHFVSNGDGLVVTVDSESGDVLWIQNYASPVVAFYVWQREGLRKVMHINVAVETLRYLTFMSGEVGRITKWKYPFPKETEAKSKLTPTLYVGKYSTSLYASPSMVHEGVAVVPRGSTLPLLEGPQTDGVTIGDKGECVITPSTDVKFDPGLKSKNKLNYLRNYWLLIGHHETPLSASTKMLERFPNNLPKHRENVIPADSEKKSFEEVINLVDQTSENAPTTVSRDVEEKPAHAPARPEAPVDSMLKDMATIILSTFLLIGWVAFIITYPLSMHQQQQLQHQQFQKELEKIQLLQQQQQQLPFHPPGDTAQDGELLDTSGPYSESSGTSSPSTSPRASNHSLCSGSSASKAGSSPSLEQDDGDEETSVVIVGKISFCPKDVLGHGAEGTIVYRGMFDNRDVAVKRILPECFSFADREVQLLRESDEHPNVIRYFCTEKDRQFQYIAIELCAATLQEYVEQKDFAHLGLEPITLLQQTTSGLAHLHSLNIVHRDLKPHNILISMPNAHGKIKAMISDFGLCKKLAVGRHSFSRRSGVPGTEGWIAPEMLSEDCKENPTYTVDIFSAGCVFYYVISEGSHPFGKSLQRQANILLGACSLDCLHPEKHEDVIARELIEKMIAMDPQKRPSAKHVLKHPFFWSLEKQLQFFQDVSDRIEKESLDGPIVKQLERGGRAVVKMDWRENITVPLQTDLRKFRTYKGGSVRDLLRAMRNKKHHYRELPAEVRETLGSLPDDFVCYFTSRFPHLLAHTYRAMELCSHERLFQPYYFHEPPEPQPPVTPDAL

CAMKK1 = CAMKK1 (Homo sapiens, UniProt Q8N5S9)
IRR = target: T1, IRR (Homo sapiens, UniProt P14616)
T1 construct: gene INSRR
T1 sequence (P14616 whole entry): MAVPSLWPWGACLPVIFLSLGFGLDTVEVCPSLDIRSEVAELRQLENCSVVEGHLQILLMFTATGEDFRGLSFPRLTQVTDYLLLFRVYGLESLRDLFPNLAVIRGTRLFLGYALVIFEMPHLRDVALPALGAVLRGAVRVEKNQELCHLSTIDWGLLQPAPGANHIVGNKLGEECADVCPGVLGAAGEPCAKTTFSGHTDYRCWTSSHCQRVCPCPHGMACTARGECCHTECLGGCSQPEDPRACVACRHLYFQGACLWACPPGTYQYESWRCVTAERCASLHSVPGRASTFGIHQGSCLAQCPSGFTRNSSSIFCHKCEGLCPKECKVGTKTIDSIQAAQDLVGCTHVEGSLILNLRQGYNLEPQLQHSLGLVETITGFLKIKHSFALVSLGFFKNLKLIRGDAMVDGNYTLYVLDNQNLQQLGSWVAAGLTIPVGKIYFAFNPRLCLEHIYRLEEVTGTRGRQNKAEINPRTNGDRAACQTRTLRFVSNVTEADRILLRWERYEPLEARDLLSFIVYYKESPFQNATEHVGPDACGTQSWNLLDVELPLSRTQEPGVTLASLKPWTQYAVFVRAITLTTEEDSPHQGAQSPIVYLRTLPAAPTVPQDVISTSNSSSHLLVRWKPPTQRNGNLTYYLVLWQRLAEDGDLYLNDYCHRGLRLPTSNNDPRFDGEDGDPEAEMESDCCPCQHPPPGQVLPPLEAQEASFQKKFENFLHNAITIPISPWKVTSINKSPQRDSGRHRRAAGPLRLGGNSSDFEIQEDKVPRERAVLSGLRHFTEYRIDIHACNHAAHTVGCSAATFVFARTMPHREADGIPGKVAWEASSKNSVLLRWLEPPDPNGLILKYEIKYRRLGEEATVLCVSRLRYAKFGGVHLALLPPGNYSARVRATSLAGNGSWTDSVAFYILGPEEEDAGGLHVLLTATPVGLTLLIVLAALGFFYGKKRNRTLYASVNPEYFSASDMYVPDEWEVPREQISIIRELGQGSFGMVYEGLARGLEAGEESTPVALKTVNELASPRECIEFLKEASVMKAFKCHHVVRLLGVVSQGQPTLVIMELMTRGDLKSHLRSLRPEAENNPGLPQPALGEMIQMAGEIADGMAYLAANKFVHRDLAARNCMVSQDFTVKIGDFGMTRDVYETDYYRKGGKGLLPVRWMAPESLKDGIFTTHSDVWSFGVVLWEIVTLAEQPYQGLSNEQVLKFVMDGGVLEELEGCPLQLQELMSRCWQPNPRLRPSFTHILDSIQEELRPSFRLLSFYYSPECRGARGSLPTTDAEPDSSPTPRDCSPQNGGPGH

MKK6 = target: T2, MKK6 (Homo sapiens, UniProt P52564)
T2 construct: gene MAP2K6

FGFR3 = FGFR3 (Homo sapiens, UniProt P22607)
EGFR = EGFR (Homo sapiens, UniProt P00533)
DMPK = DMPK (Homo sapiens, UniProt Q09013)
CSK = CSK (Homo sapiens, UniProt P41240)
FAK = target: T3, FAK (Homo sapiens, UniProt Q05397)
T3 construct: gene PTK2
T3 sequence (Q05397 whole entry): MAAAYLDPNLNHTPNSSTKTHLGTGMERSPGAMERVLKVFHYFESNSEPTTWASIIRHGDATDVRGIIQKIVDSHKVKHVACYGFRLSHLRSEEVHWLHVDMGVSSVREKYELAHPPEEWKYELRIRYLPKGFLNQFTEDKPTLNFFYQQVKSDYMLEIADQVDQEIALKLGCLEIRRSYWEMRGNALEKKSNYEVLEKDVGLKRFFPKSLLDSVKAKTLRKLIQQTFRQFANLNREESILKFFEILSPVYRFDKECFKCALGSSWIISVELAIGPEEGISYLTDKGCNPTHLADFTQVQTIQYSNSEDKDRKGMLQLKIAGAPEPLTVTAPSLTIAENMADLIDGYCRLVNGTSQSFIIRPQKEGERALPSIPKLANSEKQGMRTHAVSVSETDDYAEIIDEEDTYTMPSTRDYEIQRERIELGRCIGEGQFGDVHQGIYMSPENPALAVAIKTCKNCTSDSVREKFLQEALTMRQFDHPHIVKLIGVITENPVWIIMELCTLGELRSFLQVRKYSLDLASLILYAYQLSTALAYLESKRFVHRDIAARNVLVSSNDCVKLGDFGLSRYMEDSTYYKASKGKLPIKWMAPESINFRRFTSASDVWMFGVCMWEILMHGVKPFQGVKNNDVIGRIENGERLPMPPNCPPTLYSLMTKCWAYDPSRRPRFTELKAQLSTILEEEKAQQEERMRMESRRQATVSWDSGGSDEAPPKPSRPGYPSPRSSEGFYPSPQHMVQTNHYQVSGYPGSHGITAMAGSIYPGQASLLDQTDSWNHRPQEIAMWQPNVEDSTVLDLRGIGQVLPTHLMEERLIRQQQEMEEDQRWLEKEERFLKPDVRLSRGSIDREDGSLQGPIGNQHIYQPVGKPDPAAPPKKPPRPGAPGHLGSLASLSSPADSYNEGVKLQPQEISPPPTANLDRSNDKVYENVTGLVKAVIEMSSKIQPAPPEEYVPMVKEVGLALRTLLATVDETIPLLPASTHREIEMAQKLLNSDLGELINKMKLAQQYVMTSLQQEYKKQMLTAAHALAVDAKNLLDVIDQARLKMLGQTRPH

FGFR4 = FGFR4 (Homo sapiens, UniProt P22455)
Chain of FGFR4 (P22455 whole entry): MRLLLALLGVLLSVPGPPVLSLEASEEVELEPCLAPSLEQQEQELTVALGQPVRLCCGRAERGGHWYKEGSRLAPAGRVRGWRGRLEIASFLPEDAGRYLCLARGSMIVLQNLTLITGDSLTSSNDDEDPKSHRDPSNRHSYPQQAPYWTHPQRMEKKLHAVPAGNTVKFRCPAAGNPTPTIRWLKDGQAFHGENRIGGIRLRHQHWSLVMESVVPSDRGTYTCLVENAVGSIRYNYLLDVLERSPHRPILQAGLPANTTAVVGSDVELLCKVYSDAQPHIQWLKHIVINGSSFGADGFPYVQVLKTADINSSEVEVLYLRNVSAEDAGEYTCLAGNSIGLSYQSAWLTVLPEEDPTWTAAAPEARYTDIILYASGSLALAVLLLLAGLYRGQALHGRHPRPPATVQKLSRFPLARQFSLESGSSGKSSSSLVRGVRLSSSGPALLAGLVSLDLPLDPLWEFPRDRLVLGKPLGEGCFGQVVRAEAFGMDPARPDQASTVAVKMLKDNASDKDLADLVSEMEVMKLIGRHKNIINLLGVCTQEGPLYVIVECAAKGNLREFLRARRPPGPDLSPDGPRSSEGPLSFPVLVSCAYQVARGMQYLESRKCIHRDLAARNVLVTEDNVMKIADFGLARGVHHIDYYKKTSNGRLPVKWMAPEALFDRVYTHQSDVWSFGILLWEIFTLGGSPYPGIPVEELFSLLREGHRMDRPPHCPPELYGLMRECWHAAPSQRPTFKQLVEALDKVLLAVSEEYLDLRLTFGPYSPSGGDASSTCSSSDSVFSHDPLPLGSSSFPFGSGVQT

Bmx = Bmx (Homo sapiens, UniProt P51813)
ROCK2 = ROCK2 (Homo sapiens, UniProt O75116)
Frk = Frk (Homo sapiens, UniProt P42685)
Chain of Frk (P42685 whole entry): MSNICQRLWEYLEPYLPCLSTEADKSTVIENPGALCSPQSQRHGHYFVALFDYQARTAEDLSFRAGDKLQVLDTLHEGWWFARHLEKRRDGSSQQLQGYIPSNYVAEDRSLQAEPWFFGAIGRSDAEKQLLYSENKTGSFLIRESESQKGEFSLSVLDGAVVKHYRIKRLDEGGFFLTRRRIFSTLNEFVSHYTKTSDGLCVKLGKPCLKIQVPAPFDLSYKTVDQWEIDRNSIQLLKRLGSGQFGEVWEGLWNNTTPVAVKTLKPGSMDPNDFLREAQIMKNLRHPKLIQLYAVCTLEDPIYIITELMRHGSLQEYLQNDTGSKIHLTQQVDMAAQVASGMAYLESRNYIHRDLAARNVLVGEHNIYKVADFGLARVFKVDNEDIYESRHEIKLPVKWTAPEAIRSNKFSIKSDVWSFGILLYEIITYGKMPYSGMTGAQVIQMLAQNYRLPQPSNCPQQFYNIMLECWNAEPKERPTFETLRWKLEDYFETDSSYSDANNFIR

CDK9/cyclinT1 = CDK9/cyclinT1 (Homo sapiens, UniProt P50750)
PKC_theta = target: T4, PKC_theta (Homo sapiens, UniProt Q04759)
T4 construct: gene PRKCQ

NEK6 = NEK6 (Homo sapiens, UniProt Q9HC98)
Chain of NEK6 (Q9HC98 whole entry): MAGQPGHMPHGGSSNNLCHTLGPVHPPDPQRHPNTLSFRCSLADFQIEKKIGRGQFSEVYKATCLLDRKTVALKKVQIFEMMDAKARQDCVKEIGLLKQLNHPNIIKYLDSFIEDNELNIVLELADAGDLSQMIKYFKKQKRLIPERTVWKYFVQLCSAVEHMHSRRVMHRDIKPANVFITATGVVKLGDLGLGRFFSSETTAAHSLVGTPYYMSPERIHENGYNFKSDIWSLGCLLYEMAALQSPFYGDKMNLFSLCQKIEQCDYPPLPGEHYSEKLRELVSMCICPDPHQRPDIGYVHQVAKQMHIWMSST

TTK = TTK (Homo sapiens, UniProt P33981)
ZAP-70 = target: T5, ZAP-70 (Homo sapiens, UniProt P43403)
T5 construct: gene ZAP70

CK1_epsilon1 = target: T6, CK1_epsilon1 (Homo sapiens, UniProt P49674)
T6 construct: gene CSNK1E; epsilon 1

ACVR2B = ACVR2B (Homo sapiens, UniProt Q13705)
Rse = target: T7, Rse (Homo sapiens, UniProt Q06418)
T7 construct: gene TYRO3

CDK7/cyclinH = CDK7/cyclinH (Homo sapiens, UniProt P50613)

For `CC#CC(=O)Nc1cccc2c(Oc3ncccc3-c3ccnc(N[C@H]4CCCNC4)n3)c(C)ccc12` [G-7658], the inhibition at 1 µM (MARK1) was 9%, the inhibition at 1 µM (PIM1) was -6% and the inhibition at 1 µM (IRAK1) was 11.5%. The inhibition at 1 µM (ERN1) was 106%, the inhibition at 1 µM (CAMKK1) was 5.5% and the inhibition at 1 µM (IRR) was 0%. The inhibition at 1 µM (MKK6) was -2%, the inhibition at 1 µM (FGFR3) was -5% and the inhibition at 1 µM (EGFR) was -9%. For the same compound, the inhibition at 1 µM (DMPK) was 1.5%, the inhibition at 1 µM (CSK) was 5.5% and the inhibition at 1 µM (FAK) was 1.5%. It also gave an inhibition at 1 µM (FGFR4) of 9%, an inhibition at 1 µM (Bmx) of -4.5% and an inhibition at 1 µM (ROCK2) of -0.5%. For the same compound, the inhibition at 1 µM (Frk) was 1.5%, the inhibition at 1 µM (CDK9/cyclinT1) was 35% and the inhibition at 1 µM (PKC_theta) was 0%. For the same compound, the inhibition at 1 µM (NEK6) was 17.5%, the inhibition at 1 µM (TTK) was 11.5% and the inhibition at 1 µM (ZAP-70) was 4%. It also gave an inhibition at 1 µM (CK1_epsilon1) of 36%, an inhibition at 1 µM (ACVR2B) of 8.5% and an inhibition at 1 µM (Rse) of 6.5%. For the same compound, the inhibition at 1 µM (CDK7/cyclinH) was 7.5%.

With `CCOC(=O)Nc1cccc2c(Oc3ncccc3-c3ccnc(N[C@H]4CCCNC4)n3)c(C)ccc12` [G-1749] the inhibition at 1 µM (MARK1) was 10%, the inhibition at 1 µM (PIM1) was -5.5% and the inhibition at 1 µM (IRAK1) was 9%. It also gave an inhibition at 1 µM (ERN1) of 99.5%, an inhibition at 1 µM (CAMKK1) of 3.5% and an inhibition at 1 µM (IRR) of -0.5%. For the same compound, the inhibition at 1 µM (MKK6) was -3.5%, the inhibition at 1 µM (FGFR3) was -6% and the inhibition at 1 µM (EGFR) was -6%. The inhibition at 1 µM (DMPK) was 0%, the inhibition at 1 µM (CSK) was 6% and the inhibition at 1 µM (FAK) was 1.5%. The inhibition at 1 µM (FGFR4) was 7.5%, the inhibition at 1 µM (Bmx) was -4% and the inhibition at 1 µM (ROCK2) was 1%. It also gave an inhibition at 1 µM (Frk) of 10.5%, an inhibition at 1 µM (CDK9/cyclinT1) of 29% and an inhibition at 1 µM (PKC_theta) of 1.5%. It also gave an inhibition at 1 µM (NEK6) of 2.5%, an inhibition at 1 µM (TTK) of 16% and an inhibition at 1 µM (ZAP-70) of 3%. It also gave an inhibition at 1 µM (CK1_epsilon1) of 37%, an inhibition at 1 µM (ACVR2B) of 18.5% and an inhibition at 1 µM (Rse) of 8.5%. For the same compound, the inhibition at 1 µM (CDK7/cyclinH) was 4.5%.
